Measured values reported in paper PMC5727211, “Development of Erasin: a chromone-based STAT3 inhibitor which induces apoptosis in Erlotinib-resistant lung cancer cells” (Scientific Reports, 2017).

What was measured:
STAT3 SH2 domain = STAT3 SH2 domain (Homo sapiens, UniProt P40763); assay: FP-based competitive binding assay, STAT3 SH2 domain; details: mean ± s.d., three experiments; for IC50: 1 h with protein, then 1 h with peptide, read-out: STAT3 app. IC50; for inhibition at 80 µM / STAT3 inhibition: at 80 µM
Description: (§1) The STAT family display a high degree of homology. […] Vilsmeyer-Haack formylation of 2-hydroxy acetophenones led to 3-formyl chromones, which were subsequently converted to the acyl hydrazones by reaction with hydrazides (Fig. 1). The target molecules were tested for their abilities to inhibit binding of fluorophore-labeled peptides to the SH2 domains of STAT1[24], STAT3[25], and STAT5b[26] in assays based on fluorescence polarization (FP). The more distantly related SH2 domain of the tyrosine kinase Lck served as additional specificity control[27],[28].
Assays were performed essentially as described. In brief, protein was incubated with the test compounds for 1 h at room temperature at the following protein concentrations: STAT1: 400 nM, STAT3: 210 nM, STAT5b: 300 nM, Lck SH2: 35 nM. Subsequently, the corresponding fluorophore-labeled peptide was added: STAT1: (5-carboxyfluorescein)-GpYDKPHVL-OH, derived from the interferon-γ receptor[24]; STAT3: (5-carboxyfluorescein)-GpYLPQTV-NH2, derived from the gp130 subunit of the IL-6 receptor[25]; STAT5b: (5-carboxyfluorescein)-GpYLVLDKW-OH, derived from the erythropoietin receptor[26]; Lck SH2: (5-carboxyfluorescein)-GpYEEIP-OH, derived from the middle-T antigen. After a further hour of incubation, fluorescence polarization was measured in a plate reader (Tecan Infinite F500). Apparent IC50 data shown in Tables 1, 2, and S1 and the inhibition curves shown in Fig. 2a correspond to this time point. The majority of the pipetting work was carried out using a Biomek FXp workstation (Beckman-Coulter). […]

STAT1 SH2 domain = target: T1, STAT1 SH2 domain (Homo sapiens, UniProt P42224); assay: FP-based competitive binding assay, STAT1 SH2 domain; details: mean ± s.d., three experiments; for inhibition at 80 µM / STAT1 inhibition: at 80 µM; for IC50: 1 h with protein, then 1 h with peptide, read-out: STAT1 app. IC50
T1 sequence (P42224 1-750): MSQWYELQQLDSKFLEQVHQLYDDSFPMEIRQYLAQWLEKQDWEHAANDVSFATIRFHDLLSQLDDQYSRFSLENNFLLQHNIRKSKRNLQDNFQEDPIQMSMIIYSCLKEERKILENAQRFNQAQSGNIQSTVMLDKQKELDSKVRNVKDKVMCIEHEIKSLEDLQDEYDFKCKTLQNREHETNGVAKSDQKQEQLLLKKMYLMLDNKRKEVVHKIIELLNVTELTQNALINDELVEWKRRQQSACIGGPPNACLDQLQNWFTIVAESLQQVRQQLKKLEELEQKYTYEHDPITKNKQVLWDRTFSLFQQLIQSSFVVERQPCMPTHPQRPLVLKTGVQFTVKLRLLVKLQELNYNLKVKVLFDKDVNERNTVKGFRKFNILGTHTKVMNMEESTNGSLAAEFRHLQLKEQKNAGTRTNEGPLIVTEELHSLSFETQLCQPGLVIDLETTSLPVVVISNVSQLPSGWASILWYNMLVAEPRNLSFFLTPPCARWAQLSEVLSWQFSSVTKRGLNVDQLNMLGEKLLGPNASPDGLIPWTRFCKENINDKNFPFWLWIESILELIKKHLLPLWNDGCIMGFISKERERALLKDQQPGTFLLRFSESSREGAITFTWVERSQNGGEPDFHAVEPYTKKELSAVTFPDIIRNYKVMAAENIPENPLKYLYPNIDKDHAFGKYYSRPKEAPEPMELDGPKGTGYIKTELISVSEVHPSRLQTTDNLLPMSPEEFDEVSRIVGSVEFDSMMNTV
Description: as §1
(§2) Assays were performed essentially as described. In brief, protein was incubated with the test compounds for 1 h at room temperature at the following protein concentrations: STAT1: 400 nM, STAT3: 210 nM, STAT5b: 300 nM, Lck SH2: 35 nM. Subsequently, the corresponding fluorophore-labeled peptide was added: STAT1: (5-carboxyfluorescein)-GpYDKPHVL-OH, derived from the interferon-γ receptor[24]; STAT3: (5-carboxyfluorescein)-GpYLPQTV-NH2, derived from the gp130 subunit of the IL-6 receptor[25]; STAT5b: (5-carboxyfluorescein)-GpYLVLDKW-OH, derived from the erythropoietin receptor[26]; Lck SH2: (5-carboxyfluorescein)-GpYEEIP-OH, derived from the middle-T antigen. After a further hour of incubation, fluorescence polarization was measured in a plate reader (Tecan Infinite F500). Apparent IC50 data shown in Tables 1, 2, and S1 and the inhibition curves shown in Fig. 2a correspond to this time point. The majority of the pipetting work was carried out using a Biomek FXp workstation (Beckman-Coulter). Buffer composition: 10 mM Tris pH 8.0, 50 mM NaCl, 1 mM EDTA, 1 mM dithiothreitol (DTT), 0.1% Nonidet P-40, and 2% DMSO.

Lck SH2 = target: T2, Lck SH2 (Homo sapiens, UniProt P06239); assay: FP-based competitive binding assay, Lck SH2 domain; details: for Lck inhibition: at 80 µM
T2 construct: STAT1: 400 nM, STAT3: 210 nM, STAT5b: 300 nM, Lck SH2: 35 nM
Description: as §1, §2
Supplementary Figures and Table
No Structure app. IC50 [µM] or
Supplementary Table S1: Activities of test compounds in fluorescence polarization assays against the
SH2 domains of Lck. See the Supporting Methods for details. […]

STAT5b SH2 domain = target: T3, STAT5b SH2 domain (Homo sapiens, UniProt P51692); assay: FP-based competitive binding assay, STAT5b SH2 domain; details: mean ± s.d., three experiments; for STAT5b inhibition / inhibition at 80 µM: at 80 µM; for IC50: 1 h with protein, then 1 h with peptide, read-out: STAT5b app. IC50
T3 sequence (P51692 1-787): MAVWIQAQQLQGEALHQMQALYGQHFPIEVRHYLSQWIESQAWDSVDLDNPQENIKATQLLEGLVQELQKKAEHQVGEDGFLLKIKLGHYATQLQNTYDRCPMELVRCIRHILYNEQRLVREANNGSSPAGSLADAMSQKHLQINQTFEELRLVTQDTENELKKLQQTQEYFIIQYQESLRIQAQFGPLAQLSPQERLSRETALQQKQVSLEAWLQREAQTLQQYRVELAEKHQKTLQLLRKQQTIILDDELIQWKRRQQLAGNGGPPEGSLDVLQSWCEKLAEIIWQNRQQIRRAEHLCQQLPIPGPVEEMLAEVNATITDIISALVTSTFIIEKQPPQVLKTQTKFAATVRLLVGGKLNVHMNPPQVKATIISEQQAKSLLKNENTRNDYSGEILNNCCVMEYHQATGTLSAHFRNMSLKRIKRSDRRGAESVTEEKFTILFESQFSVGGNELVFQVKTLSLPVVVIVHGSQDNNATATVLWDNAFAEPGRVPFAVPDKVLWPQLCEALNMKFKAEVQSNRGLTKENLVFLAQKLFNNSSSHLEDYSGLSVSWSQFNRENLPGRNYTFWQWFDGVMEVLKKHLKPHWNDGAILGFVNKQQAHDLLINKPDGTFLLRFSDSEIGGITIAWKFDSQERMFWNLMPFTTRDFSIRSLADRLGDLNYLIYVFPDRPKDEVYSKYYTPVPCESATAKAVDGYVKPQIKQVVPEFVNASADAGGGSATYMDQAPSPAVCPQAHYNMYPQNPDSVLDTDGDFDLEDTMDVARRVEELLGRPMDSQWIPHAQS
Description: as §1, §2

parental HCC-827 cells = assay: Apoptosis assay (Annexin V/7-AAD flow cytometry), parental HCC-827 cells; format: cell-based, human; details: 24 h
Description: (§3) Afterwards, the cell culture supernatant from each well was collected. […] The supernatants were then returned to each well to neutralize the Accutase solution and the cells were centrifuged at 3000 rpm, at 4 °C for 5 min. The cell pellets were washed twice with cold PBS and centrifuged again. […] Cells were resuspended in 1 x binding buffer and incubated with PE Annexin V and 7-AAD at 4 °C for 30 min. Apoptosis was measured using an LSR II flow cytometer (BD Bioscience). Experiments were carried out in at least triplicate.

[1] = system: Erlotinib-resistant HCC-827 cells; assay: Apoptosis assay (Annexin V/7-AAD flow cytometry), Erlotinib-resistant HCC-827 cells; format: cell-based, human; details: 24 h
Description: as §3, with “triplicate. […]” for “triplicate.”

T2 sequence (P06239 127-224 limits assumed): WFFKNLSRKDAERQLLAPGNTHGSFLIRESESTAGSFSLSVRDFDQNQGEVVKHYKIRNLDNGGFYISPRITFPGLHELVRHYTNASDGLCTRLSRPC
Chain of STAT3 SH2 domain (P40763 whole entry, the tested form may be a part): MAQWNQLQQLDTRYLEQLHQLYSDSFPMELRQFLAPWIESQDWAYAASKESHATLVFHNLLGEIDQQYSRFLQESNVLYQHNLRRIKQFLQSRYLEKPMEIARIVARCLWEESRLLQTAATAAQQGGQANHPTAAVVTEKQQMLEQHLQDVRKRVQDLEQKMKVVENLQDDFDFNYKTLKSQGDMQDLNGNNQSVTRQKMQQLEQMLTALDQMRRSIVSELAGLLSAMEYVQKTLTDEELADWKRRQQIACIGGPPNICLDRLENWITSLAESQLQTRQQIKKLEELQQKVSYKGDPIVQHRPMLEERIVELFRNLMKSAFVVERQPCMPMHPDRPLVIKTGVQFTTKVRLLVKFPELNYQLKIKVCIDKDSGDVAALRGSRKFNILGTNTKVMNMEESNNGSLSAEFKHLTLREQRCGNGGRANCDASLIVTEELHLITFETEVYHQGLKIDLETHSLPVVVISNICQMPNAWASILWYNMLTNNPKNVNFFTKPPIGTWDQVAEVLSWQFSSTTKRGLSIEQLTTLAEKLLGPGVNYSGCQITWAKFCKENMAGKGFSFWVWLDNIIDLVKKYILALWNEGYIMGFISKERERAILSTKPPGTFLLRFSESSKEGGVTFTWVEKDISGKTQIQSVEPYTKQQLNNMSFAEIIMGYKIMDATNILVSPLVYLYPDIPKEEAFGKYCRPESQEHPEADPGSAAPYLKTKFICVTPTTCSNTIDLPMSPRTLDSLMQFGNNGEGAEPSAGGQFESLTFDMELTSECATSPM

CC(C)(C)c1ccc2occ(/C=N/NS(=O)(=O)c3ccccc3)c(=O)c2c1 [Compound 23]
inhibition at 80 µM (STAT3 SH2 domain): 4 ± 3%

COc1ccc(C(=O)N/N=C/c2coc3ccc(C(C)(C)C)cc3c2=O)cc1 [Compound 15]
inhibition at 80 µM (STAT1 SH2 domain): 34 ± 4% | IC50 (STAT3 SH2 domain): 26 ± 5 µM

O=C(N/N=C/c1coc2ccc(-c3ccccc3)cc2c1=O)c1cccnc1 [Compound 10]
Lck inhibition (Lck SH2): no inhibition | STAT1 inhibition (STAT1 SH2 domain): 36 ± 2% inhibition at 80 µM | STAT3 inhibition (STAT3 SH2 domain): 35 ± 5% inhibition at 80 µM | STAT5b inhibition (STAT5b SH2 domain): no inhibition at 80 µM

CC(C)(C)c1ccc2occ(/C=N/NC(=O)c3ccc(Cl)cc3)c(=O)c2c1 [Compound 21]
STAT1 inhibition (STAT1 SH2 domain): 12 ± 4% inhibition at 80 µM | STAT3 inhibition (STAT3 SH2 domain): 20 ± 2% at 80 µM

CC(C)(C)c1ccc2occ(C=O)c(=O)c2c1 [Compound 8a]
IC50 (STAT1 SH2 domain): 15 ± 1.4 µM | IC50 (STAT3 SH2 domain): 8.9 ± 0.8 µM | IC50 (STAT5b SH2 domain): 27.7 ± 1.5 µM

CC(C)(C)c1ccc2occ(/C=N/NC(=O)c3ccccc3)c(=O)c2c1 [Compound 13]
IC50 (STAT1 SH2 domain): 35 ± 4 µM | IC50 (STAT3 SH2 domain): 14 ± 2 µM

C#Cc1cccc(Nc2ncnc3cc(OCCOC)c(OCCOC)cc23)c1 [Erlotinib]
apoptosis (parental HCC-827 cells; 1 nM): significant increase in apoptosis | induction of apoptosis (parental HCC-827 cells; 1 µM): more than tenfold induction of apoptosis | apoptosis ([1]; 10 nM): did not show increased apoptosis | increase of the apoptotic rate ([1]; 1 µM): only a twofold increase

CC(C)(C)c1ccc2occ(/C=N/NC(=O)c3ccc(O)cc3)c(=O)c2c1 [Compound 14]
IC50 (STAT1 SH2 domain): 77 ± 16 µM | IC50 (STAT3 SH2 domain): 19 ± 1 µM

CC(C)(C)c1ccc2occ(/C=N/NC(=O)c3ccco3)c(=O)c2c1 [Compound 17]
IC50 (STAT1 SH2 domain): 49 ± 2 µM | IC50 (STAT3 SH2 domain): 14 ± 1 µM

CC(C)(C)c1ccc2occ(/C=N/NC(=O)c3cccs3)c(=O)c2c1 [Compound 18]
inhibition at 80 µM (STAT1 SH2 domain): 32 ± 0.1% | IC50 (STAT3 SH2 domain): 39 ± 4 µM

COc1ccc2occ(/C=N/NC(=O)c3cccnc3)c(=O)c2c1 [Compound 11]
inhibition at 80 µM (Lck SH2): 23 ± 2% | inhibition at 80 µM (STAT1 SH2 domain): 19 ± 2% | IC50 (STAT3 SH2 domain): 65 ± 1 µM | inhibition at 80 µM (STAT5b SH2 domain): 30 ± 7%

CC(C)(C)c1ccc2occ(/C=N/NC(=O)c3ccc(F)cc3)c(=O)c2c1 [Compound 20]
inhibition at 80 µM (STAT1 SH2 domain): 10 ± 5% | inhibition at 80 µM (STAT3 SH2 domain): 31 ± 8%

Cc1ccc2occ(/C=N/NC(=O)c3cccnc3)c(=O)c2c1 [Compound 5]
Lck inhibition (Lck SH2): no inhibition | inhibition at 80 µM (STAT1 SH2 domain): 12 ± 3% | inhibition at 80 µM (STAT3 SH2 domain): 40 ± 2% | IC50 (STAT5b SH2 domain): 32 ± 24 µM

CC(C)(C)c1ccc2occ(/C=N/NCc3ccccc3)c(=O)c2c1 [Compound 22]
inhibition at 80 µM (STAT3 SH2 domain): 9 ± 3%

CC(C)(C)c1ccc2occ(/C=N/NC(=O)c3ccc[nH]3)c(=O)c2c1 [Compound 19]
STAT1 inhibition (STAT1 SH2 domain): 9 ± 4% inhibition at 80 µM | IC50 (STAT3 SH2 domain): 50 ± 7 µM

COc1cccc(C(=O)N/N=C/c2coc3ccc(C(C)(C)C)cc3c2=O)c1 [Compound 16]
inhibition at 80 µM (STAT1 SH2 domain): 15 ± 2% | inhibition at 80 µM (STAT3 SH2 domain): 42 ± 2%

O=C(N/N=C/c1coc2ccc([N+](=O)[O-])cc2c1=O)c1cccnc1 [Compound 12]
inhibition at 80 µM (Lck SH2): 22 ± 6% | inhibition at 80 µM (STAT1 SH2 domain): 3 ± 3% | inhibition at 80 µM (STAT3 SH2 domain): 14 ± 2% | STAT5b inhibition (STAT5b SH2 domain): no inhibition at 80 µM

CCC(C)(C)c1ccc2occ(C=O)c(=O)c2c1 [Compound 9a]
IC50 (STAT1 SH2 domain): 10.7 ± 1.1 µM | IC50 (STAT3 SH2 domain): 5.3 ± 0.4 µM | IC50 (STAT5b SH2 domain): 34.8 ± 4.2 µM

O=C(N/N=C/c1coc2ccc(Cl)cc2c1=O)c1cccnc1 [Compound 3]
inhibition at 80 µM (Lck SH2): 6 ± 6% | IC50 (STAT1 SH2 domain): 32 ± 11 µM | IC50 (STAT3 SH2 domain): 40 ± 3 µM | inhibition at 80 µM (STAT5b SH2 domain): 31 ± 4%

O=C(N/N=C/c1coc2ccc(Br)cc2c1=O)c1cccnc1 [Compound 4]
inhibition at 80 µM (Lck SH2): 13 ± 2% | inhibition at 80 µM (STAT1 SH2 domain): 36 ± 6% | IC50 (STAT3 SH2 domain): 25 ± 1 µM | inhibition at 80 µM (STAT5b SH2 domain): 33 ± 7%

CC(C)c1ccc2occ(/C=N/NC(=O)c3cccnc3)c(=O)c2c1 [Compound 7]
Lck inhibition (Lck SH2): no inhibition | IC50 (STAT1 SH2 domain): 39 ± 2 µM | IC50 (STAT3 SH2 domain): 22 ± 1 µM | IC50 (STAT5b SH2 domain): 52 ± 12 µM
